The values that follow come from PubChem BioAssay (NCI).

“And” between values parts separate entries of the source, which are not always exact repeats. Equal values may be shown once.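 Method: 48-hour compound exposure of cells in 96-well plates, five concentrations, linear interpolation of endpoints. Abbreviation: GI50, concentration required for 50% inhibition of growth. TGI is the concentration that stops growth completely.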 A value given as a limit tells only on which side of the number the result lay.

Test in all cases: NCI anticancer screen, dose series, 48 h
The subject of test [1] is MALME-3M melanoma.
Test [2] has as its system NCI-H23 lung.
The subject of test [3] is NCI-H522 lung.
Test [4] has as its system RXF 393 renal.
Test [5] deals with SF-268 CNS.
Test [6] deals with SF-295 CNS.
Test [7] relates to SK-MEL-2 melanoma.
In test [8] the test system is UACC-257 melanoma.
Test [9] relates to UO-31 renal.

Take `CC(=O)NNc1nc(C)c(C(=O)NNC(=O)C(=O)Nc2ccccc2C#N)s1`: the TGI in [1], in [2], in test [3], in [4], in test [5] and in test [6] was over 100 µM in each case. Moreover, the TGI in test [7], in [8] and in [9] was over 100 µM in each case.
`Cc1cccc(NC(=O)CC(=O)N2N=C(N(CCC#N)c3ccc(Cl)cc3)CC2c2ccccc2)c1` (centres undefined): the TGI in test [1], in test [2], in test [3], in [4], in [5] and in test [6] was over 100 µM in each case. The TGI in test [8] and in test [9] was over 100 µM throughout.
`CNS(=O)(=O)NN(C)S(=O)(=O)c1ccc(F)cc1`: the TGI in [1], in [2], in test [3], in [4], in [5] and in [6] was over 100 µM in each case. Further, the TGI in test [7], in [8] and in test [9] was over 100 µM throughout.
Take `O=Cc1cn(C(=O)c2ccccc2)c2ccccc12`: the TGI in [1], in test [2], in [4], in [6], in test [7] and in test [8] was over 100 µM in each case. The TGI in test [9] was over 100 µM.
In the case of `O=C(CP(=O)(O)O)c1cccs1`, the TGI in test [1], in [2], in test [3], in [5], in test [6] and in test [7] was over 100 µM in each case. For the same compound, the TGI in [8] and in [9] was over 100 µM each time.
Regarding `CSC1CC2C(CC1(C)O)C2(C)C` (centres undefined), the TGI in [1], in test [2], in [3], in [4], in test [5] and in [7] was over 100 µM throughout. Also, the TGI in test [8] and in test [9] was over 100 µM in each case. Further, the GI50 was 33.8 µM and > 100 µM in [3]; 29.6 µM and > 100 µM in test [4]; 40.8 µM and > 100 µM in test [8].
Consider `C=CCC1([C@H](C)[C@@H](OC(C)=O)c2cc(OC)c(OC)c(OC)c2)C[C@@H](OC)CCC1=O` (some centres undefined), for which the TGI is 43.1 µM in test [1]; 22.8 µM in test [2]; 25.4 µM in test [3]; 26.6 µM in test [4]; 50.7 µM in [5]; 39.7 µM in test [6]. Also, in test [7], the TGI stood at 38.9 µM.
On to `Cc1ccc(-c2c(N)[n+]([O-])c3ccccc3[n+]2[O-])cc1`, for which the TGI in test [1] came out at 10.8 µM; in test [2], 19.5 µM; in test [3], 3.21 µM; in [5] it was 73.8 µM; in [6] it was 45.1 µM; in [7], 22.9 µM. For the same compound, the figures for the TGI in test [8] and in test [9] were 23.5 µM and 29.7 µM, respectively.
For `O=C([O-])c1ccccc1Nc1ccccn1.O=C([O-])c1ccccc1Nc1ccccn1.[Ni+2]`, the GI50 in [1] is over 100 µM; in [2] it was over 100 µM; in test [3], over 100 µM; in test [4] it was over 100 µM; in [5], 75.7 µM; in test [6], over 100 µM. Further, the GI50 was over 100 µM in test [7], over 100 µM in [8] and 48.9 µM in test [9]. In addition, the TGI in test [1], in test [2], in test [3], in [4], in test [5] and in [6] was over 100 µM in each case. The TGI in test [7], in [8] and in [9] was over 100 µM throughout.
For `Cc1cc(N(CCC#N)S(=O)(=O)c2ccccc2)ccc1/C=C1N=C(/C=C/c2ccccc2)OC\1=O`, the TGI in [1], in test [2], in [3], in test [4], in [5] and in [6] was over 100 µM each time. Besides, the TGI in [7], in test [8] and in test [9] was over 100 µM in each case.
For the compound `CC1=NCCc2c1[nH]c1cc(O)ccc21`, the TGI in test [1], in test [2], in [4], in [5], in test [6] and in test [7] was over 100 µM in each case. Moreover, the TGI in test [8] and in test [9] was over 100 µM in each case.
`O=c1c2c([nH]c3cc4c(cc13)OCO4)-c1ccccc1CC2`: the TGI in [1], in test [2], in [4], in test [5], in test [6] and in test [7] was over 100 µM in each case. In addition, the TGI in test [8] and in test [9] was over 100 µM throughout.
`COc1ccccc1NC(=O)C1=C(C)NC(C)=C(C(=O)Nc2ccccc2OC)C1c1ccccc1F`: the TGI in test [1], in test [2], in [5], in test [6], in test [7] and in test [8] was over 100 µM in each case. Also, the TGI in test [9] was over 100 µM.
For the compound `COC(=O)c1csnn1`, the TGI in [1], in [2], in [3], in [5], in [6] and in [8] was over 100 µM throughout. Besides, the TGI in [9] was over 100 µM.
With `CCCc1[nH]nc(CCC(=O)N(Cc2ccccc2)Cc2ccccc2)c1CC`, the TGI in test [1], in [2], in test [3], in test [4], in [5] and in test [6] was over 100 µM in each case. Also, the TGI in [7], in [8] and in test [9] was over 100 µM each time.
`CNC(=O)OCc1nc(SC2CCCCO2)n(C)c1COC(=O)NC` (centres undefined): the TGI in test [1], in [2], in test [3], in test [4], in [5] and in test [6] was over 100 µM each time. For the same compound, the TGI in [7], in [8] and in test [9] was over 100 µM each time.
Take `Cc1ccncc1.[O]=[Ge].[O]=[Ge].[O]=[Ge].[O]=[Ge].[O]=[Ge].[O]=[Ge][OH].[O]=[Ge][OH]`: the GI50 in test [1], in [2], in [4], in [5], in test [6] and in [7] was over 100 µM in each case. The GI50 in test [8] and in [9] was over 100 µM each time. Besides, the TGI in test [1], in test [2], in test [4], in test [5], in test [6] and in test [7] was over 100 µM in each case. Moreover, the TGI in test [8] and in test [9] was over 100 µM throughout.
For `COc1cccc(NC(=O)CC(=O)N2N=C(N(CCC#N)c3ccc(Cl)cc3)CC2c2ccccc2)c1` (centres undefined), the TGI in test [1], in test [2], in [3], in [4], in test [5] and in [6] was over 100 µM each time. For the same compound, the TGI in test [7], in test [8] and in test [9] was over 100 µM throughout.
As to `COc1nc(NC2OCC(OC(C)=O)C(OC(C)=O)C2OC(C)=O)c(N=CC=Nc2c(NC3OCC(OC(C)=O)C(OC(C)=O)C3OC(C)=O)nc(OC)n(C)c2=O)c(=O)n1C` (centres undefined), the TGI in [1], in test [2], in test [3], in [4], in test [5] and in test [6] was over 100 µM each time. The TGI in [7], in [8] and in [9] was over 100 µM each time.
With `CC1CCCCc2nc3c(c(=O)n21)CCCC3` (centres undefined), the TGI in [1], in test [2], in [3], in test [5], in [6] and in [7] was over 100 µM each time. In addition, the TGI in test [8] and in test [9] was over 100 µM throughout.
Consider `CCCCCCCCCCCCOC(=S)NCCCC`, for which the TGI in test [1] is 64 µM; in test [2] it was 57.9 µM; in test [3], 36.5 µM; in test [4], 56.8 µM; in [5] it was 58.1 µM; in test [6] it was over 100 µM. The TGI was determined as 44.2 µM in test [7], 44 µM in [8] and 20.1 µM in test [9].
With `CC(C)C(=O)Nc1nc2nc[nH]c2c(=O)[nH]1`, the TGI in [1], in test [2], in [3], in [4], in [5] and in test [6] was over 100 µM in each case. Besides, the TGI in test [7], in test [8] and in [9] was over 100 µM each time.
Consider `C[N+](C)(C)CC(=O)N/N=C(/Cc1nc2c3c(ccc2[nH]c1=O)C(=O)c1ccccc1C3=O)C(=O)Nc1ccc(Cl)c(Cl)c1`, for which the TGI in [1], in test [2], in [3], in test [4], in test [5] and in test [6] was over 100 µM in each case. In addition, the TGI in test [7] is over 100 µM; in test [8], over 100 µM; in test [9], 47.2 µM.
As to `COc1ccccc1NC(=O)CC(=O)N1N=C(C)C(N=Nc2ccc(S(N)(=O)=O)cc2)C1=O` (centres undefined), the TGI in [1], in test [2], in test [3], in test [4], in [5] and in test [6] was over 100 µM in each case. For the same compound, the TGI in test [7], in test [8] and in test [9] was over 100 µM each time.
Consider `COc1ccc2c(c1)C(O)(C(F)(F)F)c1cc(C(=O)C(F)(F)F)c3ccccc3c1N2` (centres undefined), for which the TGI is 25.6 µM in test [2]; 20.6 µM in test [3]; 23.8 µM in [4]; 24.1 µM in test [5]; 26.5 µM in test [6]; 25.2 µM in [7]. Further, the TGI in [8] is 26.4 µM; in test [9] it was 21.5 µM.
Consider `COc1cc(/C=C2\C(=O)N(C(=O)Cc3ccccc3)N=C2C)ccc1O`, for which the TGI in test [1], in test [2], in [3], in [5], in test [6] and in test [7] was over 100 µM each time. Further, the TGI in test [8] and in [9] was over 100 µM in each case.
Consider `N#CC(C(=O)/C(=N/NC(=O)c1ccccc1O)C(C#N)c1ccc(Cl)cc1)c1ccc(Cl)cc1` (centres undefined), for which the TGI in test [1] came out at 25.5 µM; in test [2], 23.7 µM; in test [4], 16.4 µM; in test [5], 32.2 µM; in test [6] it was 29.9 µM; in test [7], 30.1 µM. The results for the TGI in test [8] and in test [9] were 27.7 µM and 30.9 µM, respectively.
Turning to `C=C1C(=O)O[C@H]2[C@H]1[C@H](OC(=O)/C(C)=C\C)CC(=C)[C@@H]1[C@H](O)[C@H]3O[C@@]3(C)[C@@]12O`, the TGI in test [1], in test [2], in test [3], in [5], in test [6] and in test [7] was over 100 µM throughout. The compound further returned a TGI in test [9] of over 100 µM.
Consider `O=C(O)c1ccc([Se][Se]c2ccc(C(=O)O)cc2)cc1`, for which the TGI was 68.3 µM in test [1]; 37.6 µM in test [2]; 52 µM in test [3]; 52.9 µM in test [4]; over 100 µM in [5]; 54.7 µM in test [6]. Also, the TGI in test [7] was determined as 63.2 µM; in test [9], 77.7 µM.
